The subject of assay [1] is urease. Nature of the assay: Screening of urease inhibition (colorimetric Phenol Red assay, 96 well plates). The assay is classed as biochemical. The settings on record: additive 0.1 w/w, urea 0.2% w/w, urease 0.5 U/ml; for Inhibition: fraction vs negative control, 1 h. On the procedure:
Urease catalyzed ammonia formation leads to a change in pH (alkalization). […] The enzymatic screening assay is described below. The colorimetric assay is conducted in 96 well plates in combination with a microplate spectrophotometer with Phenol Red as pH sensitive indicator.
In brief: the substrate urea, the fragrance raw material and the urease are mixed in the wells and the change in absorption at 560 nm is monitored for 1 h. The resulting absorbance curves are compared to untreated samples (negative controls, without inhibitors) and samples with commercially available NBPT inhibitor (positive control).

For assay [2], the system named is urease. The experiment in a line: Application in cat litter: ammonia formation from artificial cat urine (headspace sampling). The settings on record: litter coated with 0.1% (w/w) active material; artificial cat urine with urea and urease; headspace ammonia over 5 days; negative control = 100. On the procedure: The efficiency of reducing ammonia formation in cat litter was tested with different fragrance raw materials that are shown in the table below (table 3).
In brief, the litter was coated with a final concentration of 0.1% (w/w) of active material respective to the dry litter material. In a glass bottle with a total volume of 5 l, the litter is treated with artificial cat urine that consists of an aqueous salt solution containing urea and urease. The development of ammonia is measured through headspace sampling with an ammonia sensitive detector over a period of 5 days.

Molecules are shown by their SMILES.

Take `CCOc1cc(C)ccc1O` [2-ethoxy-4-methylphenol]: in the assay with urease [1] (positive hits table), the Inhibition was determined as 0.786. For the compound `OC/C=C/c1ccccc1` [CINNAMIC ALCOHOL, (2E)-3-phenylprop-2-en-1-ol], in the assay with urease [1] (positive hits table), the Inhibition worked out at 0.931.

Consider `C/C=C/C(=O)C1C(C)=CCCC1(C)C` (stereo not drawn) [DAMASCONE ALPHA, (E)-1-(2,6,6-trimethyl-1-cyclohex-2-enyl)but-2-en-1-one], for which, in the assay on urease [1] (positive hits table), the Inhibition came out at 0.991.

On to `C/C=C/C(=O)C1=C(C)C=CCC1(C)C` [D[…], (E)-1-(2,6,6-trimethyl-1-cyclohexa-1,3-dienyl)but-2-en-1-one], for which the Inhibition in the assay with urease [1] (positive hits table) was 0.985.

For the compound `C=CCc1ccc(O)c(OC)c1` [EUGENOL NAT., 2-Methoxy-4-(prop-2-en-1-yl)phenol], the Inhibition in the assay with urease [1] (positive hits table) amounted to 0.908. The same measure, in the same setting: the figure for `Cc1ccc2c(c1)OC(=O)C2C` (stereo not drawn) [FURAMINTON/TONKALACTONE ™, dimethyl-3,6-benzo-2(3H)-furanone] is 0.669. Still for that read-out and setting: the figure for `CC1=C(O)C(=O)C(C)O1` (stereo not drawn) [FURANEOL, 4-Hydroxy-2,5-dimethyl-3-furanone] is 0.985. On the same count and under the same terms, for `CC(C)=CCC/C(C)=C/CO` [GERANIOL 60 B, 2,6-Octadien-1-ol 3,7-dimethyl] the value was 0.910; for `COc1ccccc1O` [GUAIACOL, 2-Methoxyphenol], 0.718.

Take `CCC/C=C/C=O` [HEXENAL TRANS-2, trans-2-hexenal]: the “Relative ammonia formation in %” value with urease [2] is recorded as 32%. Also, the Inhibition with urease [1] (positive hits table) is listed as 0.961. Regarding `CC/C=C\CCO` [HEXENOL CIS-3, cis-3-hexenol], in the assay on urease [1] (positive hits table), the Inhibition amounted to 0.888. Regarding `CCC/C=C/CO` [HEXENOL TRANS-2, trans-2-hexenol], the Inhibition in the assay with urease [1] (positive hits table) is on record as 0.912. The same measure, in the same setting: for `CC/C=C\CCOC(C)=O` [HEXENYL ACETATE CIS-3, cis-3-hexenyl acetate] the value was 0.723.

In the case of `CC/C=C\CCOC(=O)CCC` [HEXENYL BUTYRATE CIS-3, cis-3-hexenyl butyrate], the “Relative ammonia formation in %” value with urease [2] was determined as 65%. In addition, in the assay on urease [1] (positive hits table), the Inhibition was 0.999.

As for `CC/C=C\CCOC(=O)CCCCC` [HEXENYL CAPROATE CIS-3, cis-3-hexenyl hexanoate], in the assay with urease [1] (positive hits table), the Inhibition amounted to 0.824. On to `CC/C=C\CCOC(=O)C(C)C` [HEXENYL I[…]-3, cis-3-hexenyl isobutyrate], for which, in the assay on urease [1] (positive hits table), the Inhibition came out at 0.865. Same read-out and setting: for `CC/C=C\CCOC(=O)CC(C)C` [HEXENYL I[…]-3, cis-3-hexenyl isovalerate] the value was 0.724; for `CC/C=C\CCOC(=O)CC` [HEXENYL […]-3, cis-3-hexenyl propionate], 0.956.

`CC/C=C\CCOC(=O)c1ccccc1O` [HEXENYL […]-3, cis-3-hexenyl salicylate]: the “Relative ammonia formation in %” value in the assay with urease [2] is listed as 65%. Besides, the Inhibition in the assay with urease [1] (positive hits table) was 0.989. For `CC/C=C\CCOC(C)OCC` (stereo not drawn) [LEAF ACETAL, cis-1-(1-Ethoxyethoxy)-3-hexene], in that order: 81% and 0.964. With `CCC(=O)/C=C/C1C(C)=CCCC1(C)C` (stereo not drawn) [METHYL IONONE ALPHA/IFF, methyl ionone alpha], the Inhibition with urease [1] (positive hits table) is listed as 0.936. Same read-out and setting: for `CC(=O)/C(C)=C/C1C(C)=CCCC1(C)C` (stereo not drawn) [METHYL IONONE GAMMA PURE/IFF, methyl ionone gamma] the value was 0.942. For `CCCCNP(N)(N)=S` [NBPT, reference compound], in the assay on urease [1] (Table 2), the Inhibition turned out to be 1.00. Also, the “Δ Absorbance at 1 h (560 nm)” value in the assay with urease [1] (PBS pH 7.4, monitored 1 h) amounted to 0.00.

Regarding `CC(C)=CCC/C(C)=C\CO` [NEROL 900, (2Z)-3,7-dimethylocta-2,6-dien-1-ol], the Inhibition in the assay on urease [1] (positive hits table) turned out to be 0.758. On to `CC/C=C\CC/C=C/CO` [NONADIENOL-2,6, 2,6-nonadien-1-ol], for which, in the assay on urease [1] (positive hits table), the Inhibition is given as 0.885.
